# According to patent publication US20260055065A1, “PYRIDAZINONE COMPOUNDS WHICH MODULATE MUTANT PROTEINS FOR TREATING RESPIRATORY DISEASES” (The Hospital for Sick Children, priority 2022, published 2026):
# Molecular target: T1, deltaF508 CFTR (Homo sapiens, UniProt P13569, DEL508-508)
# T1 construct: host or cells: CFBE (cystic fibrosis bronchial-derived cell line)
# Assay: CFBE potentiator assay (FLIPR membrane potential, temperature-rescued)
# Type: cell-based
# Conditions: CFBE cells, 3 micromolar forskolin; bin 1 nM-100 nM; read-out: CFBE potentiator EC50 range
# Experimental: Cell culture: HEK293 cells stably expressing human deltaF508 CFTR were cultured in DMEM/F12 medium containing 10% fetal bovine serum (FBS) and 600 micrograms/mL geneticin. For functional CFTR assays, cryo-preserved cells were quickly thawed in a 37° C. water bath, diluted with warm DMEM/F12 medium containing 10% FBS, spun down at 300×g for 5 mins and resuspended in the same medium at a density of 300,000 cells/mL. A cystic fibrosis bronchial-derived cell line complemented with a 4.7 Kb deltaF508 CFTR cDNA (“CFBE”) was obtained from Dr. Dieter Gruenert under a license from UCSF. These cells were cultured in MEM with Earle's salt (Invitrogen)supplemented with 10% fetal bovine serum (Invitrogen) and 300 micrograms/mL hygromycin (Millipore). CFBE cells were grown on flasks coated with a fibronectin solution containing LHC basal medium (Invitrogen), 0.001% bovine serum albumin (Sigma), 1% v/v Vitrogen 100 (BD Bioscience) and 10 micrograms/mL human fibronectin (Life Technologies). All cells were grown at 37° C. and 5% CO2 unless specified for an assay.
# CFBE potentiator assay: CFBE cells were dissociated for 10 mins at 37° C. with Hank's balanced salt solution containing 0.6 mM EDTA and 10% of a 0.25% Trypsin/EDTA solution (all from Life Technologies). An equal amount of CFBE cell growth medium (see Cell culture above) was then added to the flasks and cells were spun at 500×g for 10 mins. Cells were re-suspended in cell medium at a density of 150,000 cells/mL and plated in 384-well black, poly-D-Lysine-coated plates (7,500 cells/well). Cells were then grown at 37° C., 5% CO2 for a total of 6-8 days to allow differentiation. Cell medium was changed every 2-3 days. The day before each experiment, culture medium was removed, fresh culture medium was added and cells were placed at 30° C., 5% CO2 for 18-24 hrs to allow temperature rescue of delF508 CFTR. Potentiation activity was measured as described above for HEK cells except cells were stained for exactly 60 mins, compounds (or DMSO for negative control) were mixed with assay buffer containing 3 micromolar forskolin, and the positive control wells had assay buffer containing 3 micromolar forskolin and 9 micromolar VX-770 (Selleckchem).
# Data analysis: CFTR activity was defined as maximum fluorescence signal after addition minus baseline fluorescence. All data were normalized to each plate's positive and negative controls and expressed as percent responses. Concentration response curves were analyzed by fitting the data to a 4-parameter logistic equation in Microcal's Origin or IDBS' Activity Base software.
# T1 sequence (P13569 with tags, fused parts or gaps DEL508-508): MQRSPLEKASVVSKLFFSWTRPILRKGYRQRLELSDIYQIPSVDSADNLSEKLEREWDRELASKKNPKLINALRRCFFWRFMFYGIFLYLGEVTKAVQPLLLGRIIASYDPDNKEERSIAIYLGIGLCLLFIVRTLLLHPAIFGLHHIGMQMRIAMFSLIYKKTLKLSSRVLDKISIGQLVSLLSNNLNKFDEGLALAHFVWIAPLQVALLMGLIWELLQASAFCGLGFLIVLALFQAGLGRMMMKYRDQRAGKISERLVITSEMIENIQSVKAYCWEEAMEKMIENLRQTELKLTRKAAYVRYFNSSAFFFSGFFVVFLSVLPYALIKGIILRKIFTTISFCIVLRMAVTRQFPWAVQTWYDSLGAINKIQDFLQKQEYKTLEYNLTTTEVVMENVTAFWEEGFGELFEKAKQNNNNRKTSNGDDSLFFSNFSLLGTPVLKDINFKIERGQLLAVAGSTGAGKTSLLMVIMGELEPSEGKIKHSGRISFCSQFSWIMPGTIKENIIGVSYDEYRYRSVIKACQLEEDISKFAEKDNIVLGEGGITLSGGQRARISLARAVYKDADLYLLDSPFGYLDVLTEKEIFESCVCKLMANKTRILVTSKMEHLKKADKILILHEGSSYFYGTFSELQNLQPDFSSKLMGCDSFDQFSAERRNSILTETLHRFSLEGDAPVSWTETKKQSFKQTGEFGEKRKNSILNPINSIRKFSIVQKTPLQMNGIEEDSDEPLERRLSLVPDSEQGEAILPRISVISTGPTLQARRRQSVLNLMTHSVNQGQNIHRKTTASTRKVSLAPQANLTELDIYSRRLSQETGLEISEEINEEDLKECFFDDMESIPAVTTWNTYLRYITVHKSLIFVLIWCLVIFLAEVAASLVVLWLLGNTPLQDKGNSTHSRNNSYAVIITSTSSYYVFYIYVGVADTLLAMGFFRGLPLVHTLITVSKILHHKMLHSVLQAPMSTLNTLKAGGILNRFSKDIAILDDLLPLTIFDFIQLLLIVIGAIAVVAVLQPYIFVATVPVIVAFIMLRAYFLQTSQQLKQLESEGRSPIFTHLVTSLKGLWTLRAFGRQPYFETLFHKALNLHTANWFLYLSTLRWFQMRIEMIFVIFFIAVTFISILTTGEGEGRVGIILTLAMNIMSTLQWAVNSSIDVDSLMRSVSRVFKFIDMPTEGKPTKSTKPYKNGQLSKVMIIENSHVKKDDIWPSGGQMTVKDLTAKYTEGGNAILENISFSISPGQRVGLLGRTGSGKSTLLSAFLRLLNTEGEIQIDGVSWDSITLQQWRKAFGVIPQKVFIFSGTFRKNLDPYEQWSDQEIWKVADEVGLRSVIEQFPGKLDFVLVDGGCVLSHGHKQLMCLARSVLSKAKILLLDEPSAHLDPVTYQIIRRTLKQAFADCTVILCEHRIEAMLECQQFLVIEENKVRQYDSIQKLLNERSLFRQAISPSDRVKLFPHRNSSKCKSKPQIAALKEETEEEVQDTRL
row,Compound,EC50 [nM]
1,Nc1c(N2CCCC2)c(-c2ccccc2)nn(-c2cccc(O)c2)c1=O,1 to 100
2,CC(C)(C)c1ccc(-n2nc(-c3ccccc3)c(N3CCCCC3)c(N)c2=O)cc1O,1 to 100
3,Nc1c(N2CCCC2)c(-c2ccc(F)cc2)nn(-c2ccc(C(F)(F)F)c(O)c2)c1=O,1 to 100
4,Nc1c(N2CCCCC2)c(-c2ccnc(C(F)(F)F)c2)nn(-c2cccc(O)c2)c1=O,1 to 100
5,CC(C)(C)c1ccc(-n2nc(-c3ccc(F)cc3)c(N3CCCC3)c(N)c2=O)cc1O,1 to 100
6,CC(C)c1ccc(-n2nc(-c3ccccc3)c(N3CCCC3)c(N)c2=O)cc1O,1 to 100
7,Nc1c(N2CCCCC2)c(-c2cccnc2)nn(-c2cccc(O)c2)c1=O,1 to 100
8,Nc1c(-n2cccn2)c(-c2ccccc2)nn(-c2cccc(O)c2)c1=O,1 to 100
9,Nc1c(N2CCC2)c(-c2ccccc2)nn(-c2cccc(O)c2)c1=O,1 to 100
10,Nc1c(N2CCCCC2)c(-c2ccccc2)nn(-c2cccc(O)c2)c1=O,1 to 100
11,Nc1c(N2CCCCC2)c(-c2ccncc2)nn(-c2cccc(O)c2)c1=O,1 to 100
12,CC(C)(C)c1ccc(-n2nc(-c3ccc(F)cc3)c(N3CCCCC3)c(N)c2=O)cc1O [drawing 37],1 to 100
13,Cc1ccccc1-c1nn(-c2cccc(O)c2)c(=O)c(N)c1N1CCCCC1 [drawing 38],1 to 100
14,CN(C)c1c(-c2ccccc2)nn(-c2cccc(O)c2)c(=O)c1N [drawing 45],1 to 100

# More lines, now with the values ahead:
row,EC50 [nM],Compound
1,1 to 100,Nc1c(N2CCCCC2)c(-c2ccccc2)nn(-c2ccc(Cl)c(O)c2)c1=O
2,1 to 100,Nc1c(N2CCCC2)c(-c2ccc(F)cc2)nn(-c2ccc(Cl)c(O)c2)c1=O
3,1 to 100,Nc1c(N2CCCC2)c(-c2ccc(F)cc2)nn(-c2ccc(F)c(O)c2)c1=O
4,1 to 100,CC(C)c1ccc(-n2nc(-c3ccc(F)cc3)c(N3CCCC3)c(N)c2=O)cc1O
5,1 to 100,Cc1ccc(-n2nc(-c3ccc(F)cc3)c(N3CCCC3)c(N)c2=O)cc1O
6,1 to 100,Nc1c(N2CCCCC2)c(-c2ccccc2)nn(-c2ccc(C(F)(F)F)c(O)c2)c1=O
7,1 to 100,Nc1c(N2CCCCC2)c(-c2ccc(F)cc2)nn(-c2ccc(C(F)(F)F)c(O)c2)c1=O
8,1 to 100,Nc1c(N2CCCCC2)c(-c2ccc(F)cc2)nn(-c2cccc(O)c2)c1=O
9,1 to 100,Nc1c(N2CCCC2)c(-c2ccccc2)nn(-c2ccc(Cl)c(O)c2)c1=O
10,1 to 100,CC(C)c1ccc(-n2nc(-c3ccc(F)cc3)c(N3CCCCC3)c(N)c2=O)cc1O
11,1 to 100,CC(C)(C)c1ccc(-n2nc(-c3ccccc3)c(N3CCCC3)c(N)c2=O)cc1O
12,1 to 100,Nc1c(N2CCCCC2)c(-c2ccc(F)cc2)nn(-c2ccc(F)c(O)c2)c1=O
13,1 to 100,Cc1ccc(-n2nc(-c3ccccc3)c(N3CCCCC3)c(N)c2=O)cc1O
14,1 to 100,Cc1ccc(-n2nc(-c3ccc(F)cc3)c(N3CCCCC3)c(N)c2=O)cc1O
15,1 to 100,CC(C)c1ccc(-n2nc(-c3ccccc3)c(N3CCCCC3)c(N)c2=O)cc1O

# Same assay, conditions: CFBE cells, 3 micromolar forskolin; bin 100 nM-1 μM; read-out: CFBE potentiator EC50 range
row,EC50 [nM],Compound
1,100 to 1000,Nc1c(N2CCCCC2)c(-c2ccccn2)nn(-c2cccc(O)c2)c1=O
2,100 to 1000,Nc1c(N2CCOCC2)c(-c2ccccc2)nn(-c2cccc(O)c2)c1=O
3,100 to 1000,Nc1c(N2CCCCC2)c(-c2ccccc2)nn(CC(O)C(F)(F)F)c1=O (centres unmarked)
4,100 to 1000,CC(CO)n1nc(-c2ccccc2)c(N2CCCCC2)c(N)c1=O (centres unmarked)
5,100 to 1000,Nc1c(N2CCCCC2)c(-c2ccccc2)nn(Cc2ccccc2)c1=O

# Same assay, conditions: CFBE cells, 3 micromolar forskolin; bin 1 μM-10 μM; read-out: CFBE potentiator EC50 range
row,EC50 [nM],Compound
1,1000 to 10000,Nc1c(N2CCCCC2)c(-c2ccccc2)nn(CCCO)c1=O
2,1000 to 10000,N#CCCn1nc(-c2ccccc2)c(N2CCCCC2)c(N)c1=O

# Same assay, conditions: CFBE cells, 3 micromolar forskolin; read-out: CFBE potentiator assay pot. pEC50 (converted)
row,EC50 [nM],Compound
1,15.8,"Cc1ccccc1-c1nn(-c2cccc(O)c2)c(=O)c(N)c1N1CCCCC1 [Compound 15, 4-amino-2-(3-hydroxyphenyl)-5-(piperidin-1-yl)-6-(o-tolyl)pyridazin-3(2H)-one]"
2,20,"CN(C)c1c(-c2ccccc2)nn(-c2cccc(O)c2)c(=O)c1N [Compound 21, 4-amino-5-(dimethylamino)-2-(3-hydroxyphenyl)-6-phenylpyridazin-3(2H)-one]"
